# Measured values as given in the SangsterLogP compilation.
# Assay: method code SF-AS, from DOI: 10.1021/jm00266a011, PMID: 4583365
# Conditions: not given
row,SMILES,logP
1,O=C(Cc1ccccc1)NC(CO)C(O)c1ccc([N+](=O)[O-])cc1 (stereo not given),1.52
2,O=C(CF)NC(CO)C(O)c1ccc([N+](=O)[O-])cc1 (stereo not given),0.15
3,O=C(NC(CO)C(O)c1ccc([N+](=O)[O-])cc1)c1ccccc1 (stereo not given),1.63
4,O=C(N[C@H](CO)[C@H](O)c1ccc(-c2ccccc2)cc1)C(Cl)Cl,2.86
5,N#CC(C(=O)NC(CO)C(O)c1ccc([N+](=O)[O-])cc1)c1ccccc1 (stereo not given),1.47
6,O=C(N[C@H](CO)[C@H](O)c1ccc(Br)cc1)C(Cl)Cl,1.87
7,O=C(NC(CO)C(O)c1ccccc1)C(Cl)Cl (stereo not given),0.94
8,CCC(CC)C(=O)N[C@H](CO)[C@H](O)c1ccc([N+](=O)[O-])cc1,1.71
9,O=C(N[C@@H](CO)[C@@H](O)c1ccc(I)cc1)C(Cl)Cl (relative stereo),2.22
10,N#Cc1ccc([C@@H](O)[C@@H](CO)NC(=O)C(Cl)Cl)cc1,1.29
11,CCCCCCCCN(C)/N=N/c1nc[nH]c1C(N)=O,3.22

# The next lines start with the values.
row,logP,SMILES
1,1.97,O=C(NC(CO)C(O)c1ccc([N+](=O)[O-])cc1)C(Cl)(Cl)Cl (stereo not given)
2,0.42,O=C(N[C@H](CO)[C@H](O)c1ccc([N+](=O)[O-])cc1)C(F)F
3,2.17,O=C(N[C@H](CO)[C@H](O)c1ccc([N+](=O)[O-])cc1)C(Br)(Br)Br
4,1.07,O=C(NC(CO)C(O)c1ccc([N+](=O)[O-])cc1)C(F)(F)F (stereo not given)
5,0.59,O=C(CCl)NC(CO)C(O)c1ccc([N+](=O)[O-])cc1 (stereo not given)
6,0.98,CC(Cl)C(=O)NC(CO)C(O)c1ccc([N+](=O)[O-])cc1 (stereo not given)
7,1.03,O=C(CI)N[C@H](CO)[C@H](O)c1ccc([N+](=O)[O-])cc1
8,0.87,CCCC(=O)NC(CO)C(O)c1ccc([N+](=O)[O-])cc1 (stereo not given)
9,1.36,O=C(N[C@H](CO)[C@H](O)c1ccc([N+](=O)[O-])cc1)C(Br)Br
10,-0.03,CC(=O)NC(CO)C(O)c1ccc([N+](=O)[O-])cc1 (stereo not given)
11,0.88,CC(C)C(=O)N[C@H](CO)[C@H](O)c1ccc([N+](=O)[O-])cc1

# Same assay, conditions: pH 7.4
row,logD,SMILES
1,1.33,CC(C)(C)C(=O)N[C@H](CO)[C@H](O)c1ccc([N+](=O)[O-])cc1

# Assay: method code SF, from DOI: 10.1021/jm00266a011, PMID: 4583365
# Conditions: not given
row,SMILES,logP
1,N#CCC(=O)NC(CO)C(O)c1ccc([N+](=O)[O-])cc1 (stereo not given),-0.22
2,CN(Cc1ccccc1)/N=N/c1nc[nH]c1C(N)=O,1.54
